Assay results as given in US8829197B2, “Salts and polymorphs of desazadesferrithiocin polyether analogues as metal chelation agents” (FerroKin Biosciences, Inc., priority 2008, dated 2014).
Structures can show the parent of a compound that is named as a salt. Where two headings read alike, the source gives them in different places. Values belong to the molecule of their own block, whether it stands above or below them.

Key:
Type in all cases: physicochemical
[1] = Approximate solubility (aliquots of solvent, visual inspection)
Method: Weighed samples were treated with aliquots of test solvents at room temperature. Samples were typically sonicated between additions to facilitate dissolution. Complete dissolution of the test material in each solvent was determined by visual inspection. Solubility was estimated based on the total volume of solvent used to provide complete dissolution. The actual solubility may be greater than the value calculated due to the incremental addition of solvent and kinetics of dissolution of the material. […] The solubility is expressed as […] if dissolution occurred after the addition of first aliquot.
Approximate solubilities are calculated based on the total solvent used to give a solution based on visual inspection. Small aliquots of solvent are added to a weighed sample with agitation. Actual solubilities may be greater because of the volume of the solvent portions utilized or a slow rate of dissolution. Solubilities are reported to the nearest mg/mL. Simulated gastric fluid (SGF) was prepared according to the 2008 USP vol. 1, p 817 except without pepsin.
Approximate solubilities are calculated based on the total solvent used to give a solution based on visual inspection. Small aliquots of solvent are added to a weighed sample with agitation. Actual solubilities may be greater because of the volume of the solvent portions utilized or a slow rate of dissolution.

[2] = Relative humidity stress / physical stability on exposure and storage; conditions: for hygroscopicity (in words): judged from 75% RH exposure; for physical change when exposed to 75% RH: 75% RH for 3 days
Text: Following isolation, salts were then characterized by one or more standard techniques including but not limited to x-ray powder diffraction (XRPD), single crystal x-ray diffraction (SC-XRD or XRD), nuclear magnetic resonance (NMR), solubility analysis, and stability testing by moisture sorption/desorption stress analysis and differential scanning calorimetry (DSC).

[3] = Moisture sorption/desorption (DVS) analysis; conditions: for weight loss on desorption: between ~95% and ~5% RH; for total weight gain (water uptake): relative humidity from ~5% to ~95% RH; for hygroscopicity (in words): from DVS data; for weight loss during desorption: desorption step, 95% to 5% RH
Method: Moisture sorption/desorption (DVS) data were collected on a VTI SGA-100 Vapor Sorption Analyzer. Sorption and desorption data were collected over a range of 5% to 95% relative humidity (RH) at 10% RH intervals under a nitrogen purge. Samples were not dried prior to analysis. Equilibrium criteria used for analysis were less than 0.0100% weight change in 5 minutes, with a maximum equilibration time of 3 hours if the weight criterion was not met. Data were not corrected for the initial moisture content of the samples. NaCl and PVP were used as calibration standards.

[4] = Water, salts of (S)-4′-(OH)-DADFT-PE (Table 16)
[5] = water, salts of (S)-4′-(OH)-DADFT-PE
[6] = listed as magnesium salt candidate
[7] = listed as Magnesium Salt of (S)-4′-(Oh)-DADFT-PE
[8] = listed as N-methyl-D-glucamine (NMG) Salt of (S)-4′-(OH)-DADFT-PE
[9] = listed as Tromethamine Salt of (S)-4′-(OH)-DADFT-PE
[10] = SGF (simulated gastric fluid, without pepsin), Table 14
[11] = Water, salts of (S)-3′-(OH)-DADFT-PE (Table 14)
[12] = water, salts of (S)-3′-(OH)-DADFT-PE
[13] = sorption step from 5% to 95% RH

solubility ([1]; 0.1N HCl in water, simulated gastric fluid, thermodynamic from solid, 0.1N HCl in Water, Table 16, read-out: Solubility): 3 mg/mL
solubility [1, 4]: <0.5 mg/mL
aqueous solubility (in words) [1, 5]: negligible
deliquescence upon ~75% RH stress [2]: No apparent deliquescence
Molecule: COCCOCCOCCOc1ccc(C2=N[C@@](C)(C(=O)O)CS2)c(O)c1 [Calcium A]

solubility [1, 4]: <0.5 mg/mL
aqueous solubility (in words) [1, 5]: negligible
appearance upon ~75% RH stress [2]: became oily
deliquescence upon ~75% RH stress ([2]; listed as Lysine salt candidate): No apparent deliquescence
Molecule: COCCOCCOCCOc1ccc(C2=N[C@@](C)(C(=O)O)CS2)c(O)c1 [Lysine A, 2,6-diammoniohexanoate (S)-2-(2-hydroxy-4-(2-(2-(2-methoxyethoxy)ethoxy)ethoxy)phenyl)-4-methyl-4,5-dihydrothiazole-4-carboxylate]

solubility [1, 4]: 60 mg/mL
aqueous solubility ([1]; water, salts of (S)-4′-(OH)-DADFT-PE, listed as magnesium salt candidate): ~60 mg/mL
deliquescence upon ~75% RH stress [2, 6]: No apparent deliquescence
additional weight gain above ~85% RH [3, 7]: ~20.2 wt %
weight gain below ~85% RH [3, 7]: ~22.0 wt %
weight loss on desorption [3, 7]: ~41.2 wt %
total weight gain (water uptake) [3, 7]: ~42.7 wt %
total weight gain (water uptake) [3, 6]: ~42.7 wt %
weight loss upon equilibration at ~5% RH [3, 7]: ~0.7 wt %
Molecule: COCCOCCOCCOc1ccc(C2=N[C@@](C)(C(=O)O)CS2)c(O)c1 [Magnesium A]

solubility ([1]; simulated gastric fluid (SGF) without pepsin, simulated gastric fluid, thermodynamic from solid, SGF (simulated gastric fluid, without pepsin), Table 14, read-out: Approximate Solubility): ≥ 50 mg/mL
solubility ([1]; water, thermodynamic from solid, Water, salts of (S)-3′-(OH)-DADFT-PE (Table 14), read-out: Approximate Solubility): ≥ 48 mg/mL
solubility ([1]; water, thermodynamic from solid, water, salts of (S)-3′-(OH)-DADFT-PE, read-out: aqueous solubility): ≥ 48 mg/mL
XRPD pattern after exposure to 75% RH ([2]; 75% RH for 8 days): remained unchanged
deliquescence when exposed to 75% RH ([2]; 75% RH for 8 days): did not deliquesce
hygroscopicity (in words) [2]: non-hygroscopic
Molecule: COCCOCCOCCOc1cccc(C2=N[C@@](C)(C(=O)O)CS2)c1O [Magnesium salt of (S)-3′-(OH)-DADFT-PE, magnesium (S)-2-(2-hydroxy-3-(2-(2-(2-methoxyethoxy)ethoxy)ethoxy)phenyl)-4-methyl-4,5-dihydrothiazole-4-carboxylate hydroxide]

solubility [1, 4]: 60 mg/mL
aqueous solubility ([1]; water, salts of (S)-4′-(OH)-DADFT-PE, listed as NMG salt candidate): ~60 mg/mL
appearance upon ~75% RH stress [2]: became oily
deliquescence upon ~75% RH stress ([2]; listed as NMG salt candidate): No apparent deliquescence
additional weight gain above ~85% RH [3, 8]: ~27.0 wt %
weight gain below ~85% RH [3, 8]: ~34.7 wt %
weight loss on desorption [3, 8]: ~60.6 wt %
total weight gain (water uptake) [3, 8]: ~61.7 wt %
total weight gain (water uptake) ([3]; listed as NMG salt candidate): ~61.7 wt %
weight loss upon equilibration at ~5% RH [3, 8]: ~0.5 wt %
Molecule: COCCOCCOCCOc1ccc(C2=N[C@@](C)(C(=O)O)CS2)c(O)c1 [NMG A, 2,3,4,5,6-pentahydroxy-N-methylhexan-1-aminium (S)-2-(2-hydroxy-4-(2-(2-(2-methoxyethoxy)ethoxy)ethoxy)phenyl)-4-methyl-4,5-dihydrothiazole-4-carboxylate]

physical change when exposed to 75% RH [2]: remained physically unchanged
hygroscopicity (in words) [2]: non-hygroscopic
exposure to ambient air ([2]; lyophilized solid, ambient air (~57% RH) for a few minutes): solids deliquesced
Molecule: COCCOCCOCCOc1cccc(C2=N[C@@](C)(C(=O)[O-])CS2)c1O.[Na+] [Sodium salt of (S)-3′-(OH)-DADFT-PE]

aqueous solubility ([1]; water, salts of (S)-4′-(OH)-DADFT-PE, listed as Tromethamine salt candidate): > 124 mg/mL
appearance upon ~75% RH stress at elevated temperature ([2]; one day relative humidity stress, ~75% RH, elevated temperature): become oily
deliquescence upon ~75% RH stress ([2]; listed as Tromethamine salt candidate): no apparent deliquescence
weight gain above ~65% RH ([3]; above ~65% RH): ~50.3 wt %
weight gain (water uptake) below ~65% RH ([3]; below ~65% RH): ~1.5 wt %
weight loss on desorption [3, 9]: ~48.4 wt %
total weight gain (water uptake) [3, 9]: ~51.8 wt %
weight loss upon equilibration at ~5% RH [3, 9]: ~0.7 wt %
Molecule: COCCOCCOCCOc1ccc(C2=N[C@@](C)(C(=O)O)CS2)c(O)c1 [Tromethamine A, 1,3-dihydroxy-2-(hydroxymethyl)propan-2-aminium (S)-2-(2-hydroxy-4-(2-(2-(2-methoxyethoxy)ethoxy)ethoxy)phenyl)-4-methyl-4,5-dihydrothiazole-4-carboxylate]
hygroscopicity (in words) [3]: lower hygroscopicity compared to magnesium and NMG salt candidates

weight loss upon equilibrium at 5% RH ([3]; 5% RH): 10.8%
additional weight gain during sorption ([3]; above 65% RH, equilibrium weight not reached): 21.2%
weight loss during desorption [3]: 26.6%
weight gain during sorption ([3]; from 5% to 65% RH): 5.7%
hygroscopicity (in words) [3]: hygroscopic
Molecule: COCCOCCOCCOc1cccc(C2=N[C@@](C)(C(=O)O)CS2)c1O [magnesium salt Form B, magnesium (S)-2-(2-hydroxy-3-(2-(2-(2-methoxyethoxy)ethoxy)ethoxy)phenyl)-4-methyl-4,5-dihydrothiazole-4-carboxylate hydroxide]

physical change when exposed to 75% RH [2]: deliquesced
hygroscopicity (in words) [2]: hygroscopic
Molecule: C1CNCCN1.COCCOCCOCCOc1cccc(C2=N[C@@](C)(C(=O)O)CS2)c1O [piperazine salt of (S)-3′-(OH)-DADFT-PE]

Approximate Solubility ([1]; ACN, Table 14): >6 mg/mL
Approximate Solubility ([1]; EtOAc/H2O, Table 14): >70 mg/mL
Approximate Solubility ([1]; IPA, Table 14): >68 mg/mL
Approximate Solubility ([1]; MEK, Table 14): <7 mg/mL
Approximate Solubility [1, 10]: ≧230 mg/mL
Approximate Solubility ([1]; THF, Table 14): ~ 5 mg/mL
Approximate Solubility [1, 11]: ≧48 mg/mL
aqueous solubility [1, 12]: ≥ 48 mg/mL
form obtained on exposure to 53% RH ([2]; 53% RH for 11 days at room temperature): Form B
physical change when exposed to 75% RH [2]: Complete deliquesce
weight loss during desorption [3]: 63.4%
hygroscopicity (in words) [3]: extremely hygroscopic
average percentage weight loss at plateau of absorption curve ([3]; plateau between 45 and 65% RH): 8.7%
weight gain during sorption [3, 13]: 67.7%
Molecule: COCCOCCOCCOc1cccc(C2=N[C@@](C)(C(=O)[O-])CS2)c1O.[K+] [potassium salt Form A, potassium (S)-3′-desazadesferrithiocin polyether]

form conversion on exposure to 40° C. ([2]; 40° C. for 6 days): desolvated into a mixture with Form A
form conversion on exposure to P2O5 ([2]; P2O5 for 6 days): converted to a new form, namely Form C
physical stability of the form (in words) ([2]; low humidity (P2O5) or elevated temperature (40° C.)): unstable
weight loss during desorption [3]: ~66%
hygroscopicity (in words) [3]: extremely hygroscopic
average percentage weight gain at plateau of absorption curve ([3]; plateau between 35 and 65% RH): ~8%
weight gain during sorption [3, 13]: ~70%
Molecule: COCCOCCOCCOc1cccc(C2=N[C@@](C)(C(=O)[O-])CS2)c1O.[K+] [potassium salt Form B, potassium (S)-3′-desazadesferrithiocin polyether]

Approximate Solubility [1, 10]: ≧39 mg/mL
Approximate Solubility [1, 11]: <1 mg/mL
aqueous solubility [1, 12]: ~1 mg/mL
physical change when exposed to 75% RH [2]: remained physically unchanged
hygroscopicity (in words) [2]: non-hygroscopic
Molecule: zinc (S)-3′-desazadesferrithiocin polyether [Zinc salt of (S)-3′-(OH)-DADFT-PE]
